Assay results taken from ChEMBL document CHEMBL4371015, “Synthesis and biological evaluation of bifendate derivatives bearing acrylamide moiety as novel antioxidant agents” (Eur J Med Chem, 2019).
Calls of active or inactive are those of the source. No cut-off for these calls is given here.

Key:
HBZY-1 [1] = assay: Cytoprotection against H2O2-induced cell death in rat HBZY-1 cells assessed as cell viability at 6 uM preincubated for 2 hrs followed by H2O2 addition and measured after 24 hrs by MTT assay (reference value: 62.1%); format: functional; settings: read-out: Activity
HBZY-1 [2] = assay: Cytoprotection against H2O2-induced cell death in rat HBZY-1 cells assessed as cell viability at 100 uM preincubated for 2 hrs followed by H2O2 addition and measured after 24 hrs by MTT assay (reference value: 62.1%); format: functional; settings: read-out: Activity
HBZY-1 [3] = assay: Cytoprotection against H2O2-induced cell death in rat HBZY-1 cells assessed as increase in cell viability preincubated for 2 hrs followed by H2O2 addition and measured after 24 hrs by MTT assay; format: functional, cell-based
HBZY-1 [4] = assay: Cytotoxicity against rat HBZY-1 cells assessed as decrease in cell viability up to 200 uM after 72 hrs by MTT assay; format: cell-based; settings: hbzy-1, 72 h
HBZY-1 [5] = assay: Cytotoxicity against rat HBZY-1 cells assessed as decrease in cell viability after 72 hrs by MTT assay; format: cell-based; settings: HBZY-1, 72 h
HBZY-1 [6] = assay: Cytoprotection against H2O2-induced cell death in rat HBZY-1 cells assessed as increase in cell viability at 6 uM preincubated for 2 hrs followed by H2O2 addition and measured after 24 hrs by MTT assay; format: functional, cell-based
[7] = biological target: T1, Nuclear factor erythroid 2-related factor 2 (Rattus norvegicus) (UniProt O54968); assay: Activation of Nrf2 in rat HBZY-1 cells assessed as increase in NQO-1 level at 6 uM by Western blot analysis; format: cell-based
T1 sequence (whole entry): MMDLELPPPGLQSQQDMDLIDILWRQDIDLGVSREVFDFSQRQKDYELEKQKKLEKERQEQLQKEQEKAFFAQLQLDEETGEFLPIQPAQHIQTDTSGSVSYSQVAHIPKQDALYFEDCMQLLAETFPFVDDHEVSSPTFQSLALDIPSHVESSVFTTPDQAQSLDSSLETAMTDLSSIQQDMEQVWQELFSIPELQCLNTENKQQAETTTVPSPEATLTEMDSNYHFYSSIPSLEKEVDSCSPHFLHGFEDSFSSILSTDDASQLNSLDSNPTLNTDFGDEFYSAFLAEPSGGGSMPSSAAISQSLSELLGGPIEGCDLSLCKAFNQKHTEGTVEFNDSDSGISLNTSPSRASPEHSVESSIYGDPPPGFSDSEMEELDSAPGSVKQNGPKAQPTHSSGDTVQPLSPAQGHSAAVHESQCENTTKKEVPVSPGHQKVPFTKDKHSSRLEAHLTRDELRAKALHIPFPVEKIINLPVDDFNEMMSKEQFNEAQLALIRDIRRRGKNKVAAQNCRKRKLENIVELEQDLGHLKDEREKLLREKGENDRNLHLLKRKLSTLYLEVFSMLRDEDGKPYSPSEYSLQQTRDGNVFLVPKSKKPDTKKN

[8] = biological target: T1, Nuclear factor erythroid 2-related factor 2 (Rattus norvegicus); assay: Activation of Nrf2 in rat HBZY-1 cells assessed as increase in HO-1 level at 6 uM by Western blot analysis; format: cell-based
[9] = biological target: T1, Nuclear factor erythroid 2-related factor 2 (Rattus norvegicus); assay: Activation of Nrf2 in rat HBZY-1 cells assessed as increase in GCLM level at 6 uM by Western blot analysis; format: cell-based
[10] = biological target: T1, Nuclear factor erythroid 2-related factor 2 (Rattus norvegicus); assay: Activation of Nrf2 in rat HBZY-1 cells assessed as increase in GCLC level at 6 uM by Western blot analysis; format: cell-based
[11] = biological target: T1, Nuclear factor erythroid 2-related factor 2 (Rattus norvegicus); assay: Activation of Nrf2 in rat HBZY-1 cells assessed as increase in NQO-1 mRNA expression at 6 uM after 24 hrs by RT-PCR analysis; format: cell-based
[12] = biological target: T1, Nuclear factor erythroid 2-related factor 2 (Rattus norvegicus); assay: Activation of Nrf2 in rat HBZY-1 cells assessed as increase in HO-1 mRNA expression at 6 uM after 24 hrs by RT-PCR analysis; format: cell-based
[13] = biological target: T1, Nuclear factor erythroid 2-related factor 2 (Rattus norvegicus); assay: Activation of Nrf2 in rat HBZY-1 cells assessed as increase in GCLM mRNA expression at 6 uM after 24 hrs by RT-PCR analysis; format: cell-based
[14] = biological target: T1, Nuclear factor erythroid 2-related factor 2 (Rattus norvegicus); assay: Activation of Nrf2 in rat HBZY-1 cells assessed as increase in GCLC mRNA expression at 6 uM after 24 hrs by RT-PCR analysis; format: cell-based
HBZY-1 [15] = assay: Antioxidant activity in rat HBZY-1 cells assessed as inhibition of H2O2-induced ROS accumulation […] for 12 hrs followed by H2O2 addition and measured after 3 hrs by DCFHA-DA/FITC staining-based FACS analysis; format: functional, cell-based
[16] = biological target: T2, Nuclear factor erythroid 2-related factor 2 (Homo sapiens) (UniProt Q16236); assay: Activation of Nrf2 (unknown origin) expressed in HEK293 cells after 16 hrs by luciferase reporter gene assay; format: cell-based
T2 sequence (whole entry): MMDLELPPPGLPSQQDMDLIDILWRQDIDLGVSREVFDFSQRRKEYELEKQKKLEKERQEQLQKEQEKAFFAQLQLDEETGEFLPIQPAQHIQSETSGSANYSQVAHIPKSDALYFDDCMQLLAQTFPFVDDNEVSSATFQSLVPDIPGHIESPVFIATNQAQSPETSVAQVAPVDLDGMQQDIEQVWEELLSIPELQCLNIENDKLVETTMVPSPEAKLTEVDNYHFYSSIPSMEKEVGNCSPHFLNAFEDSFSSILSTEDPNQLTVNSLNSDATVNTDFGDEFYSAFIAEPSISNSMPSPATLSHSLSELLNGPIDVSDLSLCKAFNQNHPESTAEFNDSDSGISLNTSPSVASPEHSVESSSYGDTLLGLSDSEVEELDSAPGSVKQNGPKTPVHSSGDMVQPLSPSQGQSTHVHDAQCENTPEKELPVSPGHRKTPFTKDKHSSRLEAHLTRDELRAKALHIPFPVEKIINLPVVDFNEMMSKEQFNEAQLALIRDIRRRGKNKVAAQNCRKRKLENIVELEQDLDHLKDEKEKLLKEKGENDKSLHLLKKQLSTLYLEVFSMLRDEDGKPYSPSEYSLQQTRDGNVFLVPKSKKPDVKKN

HBZY-1 [17] = assay: Cytoprotection against H2O2-induced cell death in rat HBZY-1 cells assessed as increase in cell viability at 6 uM pre-incubated for 2 hrs with 100 nM TRG prior to compound addition followed by 2 hrs incubation before H2O2 addition and measured after 24 hrs by MTT assay; format: functional, cell-based
HBZY-1 [18] = assay: Cytoprotection against H2O2-induced cell death in rat HBZY-1 cells assessed as increase in cell viability at 6 uM preincubated for 2 hrs with 200 nM TRG prior to compound addition followed by 2 hrs incubation before H2O2 addition and measured after 24 hrs by MTT assay; format: functional, cell-based
HBZY-1 [19] = assay: Cytoprotection against H2O2-induced cell death in rat HBZY-1 cells assessed as increase in cell viability at 6 uM preincubated for 2 hrs with 3 nM ZNPP prior to compound addition followed by 2 hrs incubation before H2O2 addition and measured after 24 hrs by MTT assay; format: functional, cell-based
HBZY-1 [20] = assay: Cytoprotection against H2O2-induced cell death in rat HBZY-1 cells assessed as increase in cell viability at 6 uM preincubated for 2 hrs with 6 nM ZNPP prior to compound addition followed by 2 hrs incubation before H2O2 addition and measured after 24 hrs by MTT assay; format: functional, cell-based
HBZY-1 [21] = assay: Cytoprotection against H2O2-induced cell death in rat HBZY-1 cells assessed as increase in cell viability at 6 uM preincubated for 2 hrs with 10 nM BSO prior to compound addition followed by 2 hrs incubation before H2O2 addition and measured after 24 hrs by MTT assay; format: functional, cell-based
HBZY-1 [22] = assay: Cytoprotection against H2O2-induced cell death in rat HBZY-1 cells assessed as increase in cell viability at 6 uM preincubated for 2 hrs with 20 nM BSO prior to compound addition followed by 2 hrs incubation before H2O2 addition and measured after 24 hrs by MTT assay; format: functional, cell-based
[23] = biological target: T3, Keap1/Nrf2 (Homo sapiens) (UniProt Q16236+Q14145); assay: Induction of Keap1/Nrf2 (unknown origin) interaction assessed as increase in Nfr2 level in presence of DTT by Western blot analysis; format: protein assay
[24] = biological target: T3, Keap1/Nrf2 (Homo sapiens); assay: Induction of Keap1/Nrf2 (unknown origin) interaction assessed as increase in Nfr2 level in absence of DTT by Western blot analysis; format: protein assay
[25] = biological target: T3, Keap1/Nrf2 (Homo sapiens); assay: Induction of Keap1/Nrf2 (unknown origin) interaction assessed as reduction in Nfr2 level in presence of DTT by Western blot analysis; format: protein assay
[26] = biological target: T3, Keap1/Nrf2 (Homo sapiens); assay: Induction of Keap1/Nrf2 (unknown origin) interaction assessed as reduction in Nfr2 level in absence of DTT by Western blot analysis; format: protein assay

T3 sequence (Q14145 whole entry, looked up, one chain of several): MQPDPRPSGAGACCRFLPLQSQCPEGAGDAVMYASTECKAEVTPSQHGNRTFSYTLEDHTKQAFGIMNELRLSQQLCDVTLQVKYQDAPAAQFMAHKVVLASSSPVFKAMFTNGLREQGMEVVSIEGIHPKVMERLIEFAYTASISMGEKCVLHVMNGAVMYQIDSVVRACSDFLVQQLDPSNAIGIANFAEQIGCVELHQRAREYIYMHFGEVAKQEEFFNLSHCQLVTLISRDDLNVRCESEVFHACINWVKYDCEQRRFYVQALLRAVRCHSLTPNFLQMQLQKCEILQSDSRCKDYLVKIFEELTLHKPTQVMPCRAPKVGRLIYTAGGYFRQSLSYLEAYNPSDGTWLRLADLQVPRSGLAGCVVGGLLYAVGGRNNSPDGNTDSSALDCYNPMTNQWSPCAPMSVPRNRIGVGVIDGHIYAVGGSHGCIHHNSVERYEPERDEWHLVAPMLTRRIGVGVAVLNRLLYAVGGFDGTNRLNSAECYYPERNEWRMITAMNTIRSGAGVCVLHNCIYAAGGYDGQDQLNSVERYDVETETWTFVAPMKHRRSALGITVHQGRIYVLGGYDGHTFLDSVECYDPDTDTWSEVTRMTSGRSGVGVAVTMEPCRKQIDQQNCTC

## COC(=O)c1cc(OC)c2c(c1-c1c(C(=O)OC)cc(OC)c3c1OCO3)OCO2 [BIFENDATE]
HBZY-1 [1]
  viability at 6 µM: 66.1%
HBZY-1 [2]
  viability at 100 µM: 89.8%

## COC(=O)c1cc(OC)c2c(c1-c1c(/C=C(\C#N)C(=O)Nc3ccccc3OC)cc(OC)c3c1OCO3)OCO2
HBZY-1 [1]
  viability at 6 µM: 99.2%
HBZY-1 [3]
  Activity: Dose-dependent effect
HBZY-1 [4]
  Activity: Toxic
HBZY-1 [5]
  IC50: > 200 µM

## COc1ccccc1NC(=O)/C(C#N)=C/c1ccc(OC)c(OC)c1
HBZY-1 [6]
  Activity: inactive
HBZY-1 [5]
  IC50: > 200 µM

## CCCCNC(=O)/C(C#N)=C/c1cc(OC)c2c(c1-c1c(C(=O)OC)cc(OC)c3c1OCO3)OCO2
HBZY-1 [1]
  viability at 6 µM: 95.3%
HBZY-1 [5]
  IC50: > 200 µM

## COC(=O)c1cc(OC)c2c(c1-c1c(/C=C(\C#N)C(=O)Nc3ccc(OC)c(OC)c3)cc(OC)c3c1OCO3)OCO2
HBZY-1 [5]
  IC50: > 200 µM

## Oc1ccc(/C=C/c2cc(O)cc(O)c2)cc1
[7]
  Activity: Active
[8]
  Activity: Active
[9]
  Activity: Active
[10]
  Activity: Active
[11]
  Activity: Active
[12]
  Activity: Active
[13]
  Activity: Active
[14]
  Activity: Active

## COc1ccccc1NC(=O)/C(C#N)=C/c1cc(OC)c(OC)c(OC)c1
HBZY-1 [6]
  Activity: inactive
HBZY-1 [5]
  IC50: > 200 µM

## COC(=O)c1cc(OC)c2c(c1-c1c(/C=C(\C#N)C(=O)NCc3ccc(OC)cc3)cc(OC)c3c1OCO3)OCO2
HBZY-1 [5]
  IC50: > 200 µM

## COC(=O)c1cc(OC)c2c(c1-c1c(/C=C(\C#N)C(=O)Nc3ccc(OC)cc3)cc(OC)c3c1OCO3)OCO2
HBZY-1 [1]
  viability at 6 µM: 97.2%
HBZY-1 [3]
  Activity: Dose-dependent effect
HBZY-1 [15]
  inhibition: Dose-dependent effect
[16]
  Activity: Dose-dependent effect
HBZY-1 [17]
  Activity: inactive
HBZY-1 [18]
  Activity: inactive
HBZY-1 [19]
  Activity: inactive
HBZY-1 [20]
  Activity: inactive
HBZY-1 [21]
  Activity: inactive
HBZY-1 [22]
  Activity: inactive
[23]
  inhibition: inactive
HBZY-1 [4]
  Activity: Non-Toxic
HBZY-1 [5]
  IC50: > 200 µM
[24]
  Activity: Active
[25]
  inhibition: inactive
[26]
  Activity: Active

## COc1ccc(/C=C(\C#N)C(=O)Nc2ccccc2OC)cc1
HBZY-1 [6]
  Activity: inactive
HBZY-1 [5]
  IC50: > 200 µM

## COC(=O)c1cc(OC)c2c(c1-c1c(/C=C(\C#N)C(=O)NCCc3ccc(OC)c(OC)c3)cc(OC)c3c1OCO3)OCO2
HBZY-1 [5]
  IC50: > 200 µM

## COC(=O)c1cc(OC)c2c(c1-c1c(/C=C/C(=O)Nc3ccc(OC)c(OC)c3)cc(OC)c3c1OCO3)OCO2
HBZY-1 [5]
  IC50: > 200 µM

## COC(=O)c1cc(OC)c2c(c1-c1c(/C=C/C(=O)Nc3cc(OC)c(OC)c(OC)c3)cc(OC)c3c1OCO3)OCO2
HBZY-1 [5]
  IC50: > 200 µM

## COC(=O)c1cc(OC)c2c(c1-c1c(/C=C/C(=O)Nc3ccc(OC)cc3)cc(OC)c3c1OCO3)OCO2
HBZY-1 [5]
  IC50: > 200 µM

## COC(=O)c1cc(OC)c2c(c1-c1c(/C=C/C(=O)Nc3ccccc3OC)cc(OC)c3c1OCO3)OCO2
HBZY-1 [1]
  viability at 6 µM: 90.6%
HBZY-1 [5]
  IC50: > 200 µM

## COC(=O)c1cc(OC)c2c(c1-c1c(/C=C(\C#N)C(=O)Nc3cc(OC)c(OC)c(OC)c3)cc(OC)c3c1OCO3)OCO2
HBZY-1 [5]
  IC50: > 200 µM

## CCCCNC(=O)/C=C/c1cc(OC)c2c(c1-c1c(C(=O)OC)cc(OC)c3c1OCO3)OCO2
HBZY-1 [5]
  IC50: > 200 µM

## COC(=O)c1cc(OC)c2c(c1-c1c(/C=C/C(=O)NCCc3ccc(OC)c(OC)c3)cc(OC)c3c1OCO3)OCO2
HBZY-1 [5]
  IC50: > 200 µM

## COC(=O)c1cc(OC)c2c(c1-c1c(/C=C/C(=O)NCc3ccc(OC)cc3)cc(OC)c3c1OCO3)OCO2
HBZY-1 [5]
  IC50: > 200 µM
